{"source": "patent US20100167988A1", "about": "“ETHOXYPHENYLMETHYL INHIBITORS OF SGLT2” (AUSPEX PHARMACEUTICALS, INC., priority 2008, published 2010)", "origin": "cited, not measured here", "system": "multiple CYP enzymes, including CYP1A1, CYP1A2, CYP2A6, CYP2C9, CYP2D6, and CYP3A4", "conditions": "recombinant CYP isoforms, in vitro", "data": [{"smiles": "CCOc1ccc(Cc2cc([C@@H]3O[C@H](CO)[C@@H](O)[C@H](O)[C@H]3O)ccc2Cl)cc1", "note": "[Dapagliflozin, (2S,3R,4R,5S,6R)-2-(3-(4-ethoxybenzyl)-4-chlorophenyl)-6-(hydroxymethyl)-tetrahydro-2H-pyran-3,4,5-triol]", "values": [{"measurement": "turnover", "value": "low"}]}]}
